Experimental data taken from the supplement of paper PMC10307832.

Columns and labels:
Assay in all cases: relative viability (nuclei count vs DMSO), 5 days (fraction); higher = more cells survive
R406 + Lapatinib = compound: COc1cc(Nc2ncc(F)c(Nc3ccc4c(n3)NC(=O)C(C)(C)O4)n2)cc(OC)c1OC [R406] + CS(=O)(=O)CCNCc1ccc(-c2ccc3ncnc(Nc4ccc(OCc5cccc(F)c5)c(Cl)c4)c3c2)o1 [Lapatinib] (partner 2 µM)
Method in brief: (§1)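 One day after seeding in 1536-well plates, lung cancer cell lines were dosed by pin tool. Dosing was either single-drug or a fixed anchor-drug dose plus five library-drug doses (not always all listed) in √10 steps. After 5 days, nuclei were stained in one fix-and-stain step and counted on 4× images, and relative viability is the nuclei count of treated wells over that of vehicle wells, given as the median of duplicate plates.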

R406 + Olaparib = compound: COc1cc(Nc2ncc(F)c(Nc3ccc4c(n3)NC(=O)C(C)(C)O4)n2)cc(OC)c1OC [R406] + O=C(c1cc(Cc2n[nH]c(=O)c3ccccc23)ccc1F)N1CCN(C(=O)C2CC2)CC1 [Olaparib] (partner 8 µM)
Method in brief: as §1

Daporinad + Tozasertib = compound: O=C(/C=C/c1cccnc1)NCCCCC1CCN(C(=O)c2ccccc2)CC1 [Daporinad] + Cc1cc(Nc2cc(N3CCN(C)CC3)nc(Sc3ccc(NC(=O)C4CC4)cc3)n2)n[nH]1 [Tozasertib] (partner 0.1 µM)
Method in brief: as §1

Daporinad + Decitabine = compound: O=C(/C=C/c1cccnc1)NCCCCC1CCN(C(=O)c2ccccc2)CC1 [Daporinad] + Nc1ncn([C@H]2C[C@H](O)[C@@H](CO)O2)c(=O)n1 [Decitabine] (partner 2 µM)
Method in brief: as §1

Cell Line	relative viability (R406 + Lapatinib; first compound 0.08 µM)	relative viability (R406 + Lapatinib; first compound 0.253 µM)	relative viability (R406 + Lapatinib; first compound 0.8 µM)	relative viability (R406 + Lapatinib; first compound 2.53 µM)	relative viability (R406 + Lapatinib; first compound 8 µM)	relative viability (R406 + Olaparib; first compound 0.08 µM)	relative viability (R406 + Olaparib; first compound 0.253 µM)	relative viability (R406 + Olaparib; first compound 0.8 µM)	relative viability (R406 + Olaparib; first compound 2.53 µM)	relative viability (R406 + Olaparib; first compound 8 µM)	relative viability (Daporinad + Tozasertib; first compound 0.0005 µM)	relative viability (Daporinad + Tozasertib; first compound 0.001581 µM)	relative viability (Daporinad + Tozasertib; first compound 0.005 µM)	relative viability (Daporinad + Tozasertib; first compound 0.01581 µM)	relative viability (Daporinad + Decitabine; first compound 0.0005 µM)	relative viability (Daporinad + Decitabine; first compound 0.001581 µM)	relative viability (Daporinad + Decitabine; first compound 0.005 µM)	relative viability (Daporinad + Decitabine; first compound 0.01581 µM)
NCI-H838	0.886	1.11	1.36	0.114	0.182	0.725	0.798	0.908	0.248	0.142	0.25	0.322	0.229	0.177	0.44	0.518	0.358	0.303
NCI-H1355	0.887	0.974	1.08	0.901	0.764	0.675	0.8	0.82	0.569	0.374	0.519	0.558	0.58	0.631	0.373	0.356	0.323	0.369
NCI-H1395	0.821	1.1	0.986	0.851	0.491	0.455	0.475	0.444	0.421	0.362	0.7	0.764	0.771	0.839	0.713	0.816	0.765	0.784
NCI-H1437	0.689	1.01	1.07	0.265	0.328	0.611	0.622	0.647	0.546	0.431	0.49	0.401	0.405	0.4	0.554	0.565	0.614	0.575
NCI-H1650	0.724	0.926	0.802	0.154	0.119	0.911	0.808	0.798	0.787	0.647	0.387	0.44	0.461	0.275	0.402	0.396	0.458	0.327
NCI-H1651	0.694	0.87	0.944	0.234	0.275	0.19	0.193	0.177	0.173	0.172	0.615	0.814	0.601	0.663	0.711	0.67	0.731	0.47
NCI-H1666	0.784	0.79	0.708	0.452	0.336	0.74	0.797	0.725	0.824	0.687	0.619	0.635	0.655	0.701	0.666	0.712	0.814	0.718
NCI-H1734	1.03	1.1	1.1	0.426	0.621	0.641	0.654	0.688	0.542	0.417	0.283	0.262	0.285	0.263	0.488	0.494	0.394	0.32
NCI-H1755	1.03	1.07	1.04	0.678	0.329	0.801	0.88	0.869	0.792	0.502	0.449	0.544	0.533	0.638	0.747	0.716	0.713	0.652
